# pIC50: −log10 of the molar value.
# Target: human recombinant H-PGDS (Homo sapiens, UniProt O60760)
# Experiment: Slightly modified fluorescence intensity h-PGDS TBA enzyme assay (1:40,000 enzyme, 40 second reaction, 1/2 log dilutions, top concentration typically 10 μM)
# Type: biochemical
# Conditions: slightly modified assay: 1:40,000 human recombinant H-PGDS
# Protocol: Fluoresecence Intensity h-PGDSTBA Enzyme Assay
# Prostaglandin D Synthase (PGDS) converts the substrate prostaglandin H2 (PGH2) to prostaglandin D2. The depletion of PGH2 was measured via an Fe(II) reduction of the remaining PGH2 to malondialdehyde (MDA) and 12-HHT. The enzyme assay is based on the quantitative formation of a fluorescent complex from the non-fluorescent compounds MDA and 2-thiobarbituric acid (TBA), substantially as described in U.S. patent application publication US-2004/152148 by Lombardt.
# Examples 6-8, 11a-16, 23, 26-47, 49-103, 105-113, 115-118 and 126-128 were tested in a slightly modified assay: The enzyme assay (30 μls during biological process) contained 100 mM Trizma pH 8.0, 100 μM MgCl2, 0.1 mg/ml IgG Rabbit serum, 5.0 μM PGH2 (Cayman; ethanol solution, #17020), 2.5 mM L-Glutathione (Sigma; reduced form #G4251), 1:40,000 human recombinant H-PGDS (from 1 mg/ml), 0.5% DMSO and inhibitor (varying concentration). 3 μls of diluted inhibitor (dissolved in DMSO) was plated into a 384-well assay plate followed by a 24 μl addition of an enzyme solution containing h-PGDS, Trizma, MgCl2, IgG and L-Glutathione. After pre-incubation of inhibitor and enzyme solution for 10 minutes at room temperature, the reaction was initiated with a 3 μl addition of substrate solution in 10 mM HCl. The reaction was terminated after 40 second by the addition of 3 μl stop buffer containing FeCl2 and citric acid. After addition of 45 μls of TBA plates were heated for one hour in a 70° C. oven. Plates were cooled at room temperature overnight and read on a plate reader the next day with excitation @ 530 nm and emission @ 560 nm. IC50' s of inhibitors were calculated with a 4-parameter fit using 11 inhibitor concentrations in duplicate with ½ log serial dilutions. Controls on each plate included no inhibitor (zero % effect) and an inhibitor 500-fold in excess of its' IC50 (100% effect). The highest inhibitor concentration tested was typically 10 μM.
# Sequence of human recombinant H-PGDS (O60760 whole entry): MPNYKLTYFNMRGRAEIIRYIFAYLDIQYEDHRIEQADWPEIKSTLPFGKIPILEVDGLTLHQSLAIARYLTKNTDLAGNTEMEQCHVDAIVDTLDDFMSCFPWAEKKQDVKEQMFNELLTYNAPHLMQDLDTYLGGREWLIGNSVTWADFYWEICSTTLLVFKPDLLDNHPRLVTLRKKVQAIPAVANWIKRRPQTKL
row,Compound,pIC50
1,"O=C(N[C@H]1CCC[C@@H](C(=O)NC2CCCC2)C1)c1ccc(-c2cccc(F)c2)nc1 (relative stereo) [Example 33, N-[cis-3-(Cyclopentylcarbamoyl)cyclohexyl]-6-(3-fluorophenyl)nicotinamide]",8.00
2,"C[C@]1(C(=O)O)CC[C@@H](NC(=O)c2ccc(-c3cccc(F)c3)nc2)CC1 [Example 116, cis-4-({[6-(3-Fluorophenyl)pyridin-3-yl]carbonyl}amino)-1-methylcyclohexanecarboxylic acid]",6.86
3,"CSc1nccn1C1CCC(NC(=O)c2ccc(-c3cccc(F)c3)nc2)CC1 (centres unmarked) [Example 45, 6-(3-Fluorophenyl)-N-{4-[2-(methylthio)-1H-imidazol-1-yl]cyclohexyl}nicotinamide]",7.98
4,"O=C(N[C@H]1CC[C@H](OCCO)CC1)c1ccc(-c2cccc(F)c2)nc1 [Example 89, 6-(3-Fluorophenyl)-N-[trans-4-(2-hydroxyethoxy)cyclohexyl]nicotinamide]",8.41
5,"CNCCN(C)C(=O)[C@@H]1CCC[C@H](NC(=O)c2ccc(-c3cccc(F)c3)nc2)C1 (relative stereo) [Example 37, 6-(3-Fluorophenyl)-N-[cis-3-{methyl[2-(methylamino)ethyl]carbamoyl}cyclohexyl]nicotinamide]",7.60
6,CN(C)C(=O)C[C@H]1CC[C@@H](NC(=O)c2ccc(-c3cccc(F)c3)nc2)CC1 [Example 78],8.10
7,"O=C(NC1CCC(N2CC[C@@H](O)C2)CC1)c1ccc(-c2cccc(F)c2)nc1 (single isomer, unassigned) [Example 60]",6.95
8,"CCN1CCC(CNC(=O)[C@@H]2CCC[C@H](NC(=O)c3ccc(-c4cccc(F)c4)nc3)C2)C1 (relative stereo) [Example 64J, N-[cis-3-{[(1-ethylpyrrolidin-3-yl)methyl]carbamoyl}cyclohexyl]-6-(3-fluorophenyl)nicotinamide]",7.71
9,"CN(C)C[C@H]1CC[C@H](NC(=O)c2ccc(-c3cccc(F)c3)nc2)CC1 [Example 112, N-{trans-4-[(Dimethylamino)methyl]cyclohexyl}-6-(3-fluorophenyl)nicotinamide]",7.80
10,"CN(C)C(=O)[C@H]1CCC[C@@H](NC(=O)c2ccc(-c3cccc(F)c3)nc2)C1 (relative stereo) [Example 31, N-[cis-3-(Dimethyicarbamoyl)cyclohexyl]-6-(3-fluorophenyl)nicotinamide]",7.97
11,"O=C(NC1CCC(c2ncc[nH]2)CC1)c1ccc(-c2cccc(F)c2)nc1 (single isomer, unassigned) [Example 63, 6-(3-Fluorophenyl)-N-[4-(1H-imidazol-2-yl)cyclohexyl]nicotinamide]",7.89
12,"N[C@H]1CCCC[C@@H]1NC(=O)[C@@H]1CCC[C@H](NC(=O)c2ccc(-c3cccc(F)c3)nc2)C1 (mixture of isomers) [Example 64B, N-[cis-3-{[(1S,2S)-2-aminocyclohexyl]carbamoyl}cyclohexyl]-6-(3-fluorophenyl)nicotinamide]",7.19
13,"O=C(NC1CCC(NC2CCOC2)CC1)c1ccc(-c2cccc(F)c2)nc1 (single isomer, unassigned) [Example 56, 6-(3-Fluorophenyl)-N-[-4-(tetrahydrofuran-3-ylamino)cyclohexyl]nicotinamide]",7.51
14,"O=C(N[C@H]1CCC[C@@H](C(=O)N[C@H]2CCNC2=O)C1)c1ccc(-c2cccc(F)c2)nc1 (mixture of isomers) [Example 64H, 6-(3-fluorophenyl)-N-[cis-3-{[(3S)-2-oxopyrrolidin-3-yl]carbamoyl}cyclohexyl]nicotinamide]",7.89
15,"CCN(C)C(=O)[C@@H]1CCC[C@H](NC(=O)c2ccc(-c3cccc(F)c3)nc2)C1 (relative stereo) [Example 32, N-{cis-3-[Ethyl(methyl)carbamoyl]cyclohexyl}-6-(3-fluorophenyl)nicotinamide]",7.42
16,"NC1CCC(NC(=O)c2ccc(-c3cccc(F)c3)nc2)CC1 (centres unmarked) [Example 44, N-(4-Aminocyclohexyl)-6-(3-fluorophenyl)nicotinamide]",7.17
17,"O=C(NC1CCc2ncccc2C1)c1ccc(-c2cccc(F)c2)nc1 (centres unmarked) [Example 127, 6-(3-Fluorophenyl)-N-(5,6,7,8-tetrahydroquinolin-6-yl)nicotinamide]",8.30
18,"CC(C)(C)NC(=O)[C@@H]1CCC[C@H](NC(=O)c2ccc(-c3cccc(F)c3)nc2)C1 (relative stereo) [Example 38, N-[cis-3-(tert-Butylcarbamoyl)cyclohexyl]-6-(3-fluorophenyl)nicotinamide]",8.07
19,"CN(C)C(=O)C[C@H]1CC[C@H](NC(=O)c2ccc(-c3cccc(F)c3)nc2)CC1 [Example 95, N-{trans-4-[2-(Dimethylamino)-2-oxoethyl]cyclohexyl}-6-(3-fluorophenyl)nicotinamide]",8.20
20,"Cc1nccn1[C@H]1CC[C@H](NC(=O)c2ccc(-c3cccc(F)c3)nc2)CC1 [Example 105, 6-(3-Fluorophenyl)-N-[trans-4-(2-methyl-1H-imidazol-1-yl)cyclohexyl]nicotinamide]",7.83

# Results, then the compound that gave them:
row,pIC50,Compound
1,7.89,"NC1CN(C(=O)[C@H]2CC[C@H](NC(=O)c3ccc(-c4cccc(F)c4)nc3)CC2)C1 [Example 100, N-{trans-4-[(3-Aminoazetidin-1-yl)carbonyl]cyclohexyl}-6-(3-fluorophenyl)nicotinamide]"
2,7.59,"O=C(N[C@H]1CC[C@H](C(=O)NC2CCCC2)CC1)c1ccc(-c2cccc(F)c2)nc1 [Example 86, N-[trans-4-(Cyclopentylcarbamoyl)cyclohexyl]-6-(3-fluorophenyl)nicotinamide]"
3,7.95,"CN1CCN(C(=O)[C@H]2CC[C@@H](NC(=O)c3ccc(-c4cccc(F)c4)nc3)C2)CC1 [Example 12, 6-(3-Fluorophenyl)-N-{(1R,3S)-3-[(4-methylpiperazin-1-yl)carbonyl]cyclopentyl}nicotinamide]"
4,7.80,"O=C(N[C@H]1CC[C@@H](O)CC1)c1ccc(-c2cccc(F)c2)nc1 [Example 65, 6-(3-Fluorophenyl)-N-(cis-4-hydroxycyclohexyl)nicotinamide]"
5,7.90,"CN1CCN(C(=O)[C@H]2CC[C@H](NC(=O)c3ccc(-c4cccc(F)c4)nc3)CC2)CC1 [Example 90, 6-(3-Fluorophenyl)-N-{trans-4-[(4-methylpiperazin-1-yl)carbonyl]cyclohexyl}nicotinamide]"
6,8.08,"O=C(N[C@H]1CCC[C@@H](C(=O)N2CCOCC2)C1)c1ccc(-c2cccc(F)c2)nc1 (relative stereo) [Example 36, 6-(3-Fluorophenyl)-N-[cis-3-(morpholin-4-ylcarbonyl)cyclohexyl]nicotinamide]"
7,7.83,"CC(C)NC(=O)[C@H]1CC[C@H](NC(=O)c2ccc(-c3cccc(F)c3)nc2)CC1 [Example 88, 6-(3-Fluorophenyl)-N-[trans-4-(isopropylcarbamoyl)cyclohexyl]nicotinamide]"
8,7.63,"CN1CCN(C(=O)[C@H]2CC[C@@H](NC(=O)c3ccc(-c4cccc(F)c4)nc3)CC2)CC1 [Example 72, 6-(3-Fluorophenyl)-N-{cis-4-[(4-methylpiperazin-1-yl)carbonyl]cyclohexyl}nicotinamide]"
9,8.34,"O=C(N[C@H]1CC[C@@H](C(=O)N2CCCC2)CC1)c1ccc(-c2cccc(F)c2)nc1 [Example 70, 6-(3-Fluorophenyl)-N-[cis-4-(pyrrolidin-1-ylcarbonyl)cyclohexyl]nicotinamide]"
10,7.35,"O=C(NC1CCC(N2CC[C@@H](O)C2)CC1)c1ccc(-c2cccc(F)c2)nc1 (single isomer, unassigned) [Example 61]"
11,7.78,"O=C(N[C@@H]1CC[C@H](C(=O)N2CCNCC2)C1)c1ccc(-c2cccc(F)c2)nc1 [Example 13, 6-(3-Fluorophenyl)-N-[(1R,3S)-3-(piperazin-1-ylcarbonyl)cyclopentyl]nicotinamide]"
12,7.97,"CN(C)C(=O)[C@H]1CC[C@@H](NC(=O)c2ccc(-c3cccc(F)c3)nc2)CC1 [Example 74, N-[cis-4-(Dimethylcarbamoyl)cyclohexyl]-6-(3-fluorophenyl)nicotinamide]"
13,7.27,"CN1CCN(C[C@H]2CC[C@@H](NC(=O)c3ccc(-c4cccc(F)c4)nc3)CC2)CC1 [Example 81, 6-(3-Fluorophenyl)-N-{cis-4-[(4-methylpiperazin-1-yl)methyl]cyclohexyl}nicotinamide]"
14,7.69,"CC(C)(C)NC(=O)[C@H]1CC[C@@H](NC(=O)c2ccc(-c3cccc(F)c3)nc2)CC1 [Example 75, N-[cis-4-(tert-Butylcarbamoyl)cyclohexyl]-6-(3-fluorophenyl)nicotinamide]"
15,7.85,"O=C(N[C@H]1CC[C@@H](C(=O)N2CCOCC2)CC1)c1ccc(-c2cccc(F)c2)nc1 [Example 73, 6-(3-Fluorophenyl)-N-[cis-4-(morpholin-4-ylcarbonyl)cyclohexyl]nicotinamide]"
